Assay results from ChEMBL document CHEMBL1129497, “Guanine, pyrazolo[3,4-d]pyrimidine, and triazolo[4,5-d]pyrimidine (8-azaguanine) phosphonate acyclic derivatives as inhibitors of purine nucleoside phosphorylase” (J Med Chem, 1996).

Target: T1, Purine nucleoside phosphorylase (Homo sapiens, UniProt P00491)
T1 sequence (P00491 whole entry): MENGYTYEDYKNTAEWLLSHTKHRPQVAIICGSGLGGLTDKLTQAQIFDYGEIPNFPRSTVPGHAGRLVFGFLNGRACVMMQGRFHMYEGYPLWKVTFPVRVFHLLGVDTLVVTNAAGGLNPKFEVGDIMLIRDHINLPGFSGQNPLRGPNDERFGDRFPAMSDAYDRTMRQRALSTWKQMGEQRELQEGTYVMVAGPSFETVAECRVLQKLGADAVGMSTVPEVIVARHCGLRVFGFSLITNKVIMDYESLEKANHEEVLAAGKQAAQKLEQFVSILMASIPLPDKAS
Experiment: In vitro inhibition of purine nucleoside phosphorylase isolated from human erythrocytes.

Nc1nc2c(ncn2COCCCCCCP(=O)(O)O)c(=O)[nH]1
Ki: 220 nM

Nc1nc2c(ncn2CCCCCCCCCCP(=O)(O)O)c(=O)[nH]1
Ki: 1600 nM

Nc1nc2c(cnn2CCCCCCCP(=O)(O)O)c(=O)[nH]1
Ki: 580 nM

Nc1nc(O)c2ncn(CCCCCCCCP(=O)(O)O)c2n1
Ki: 390 nM

Nc1nc(O)c2nnn(CCCCCCP(=O)(O)O)c2n1
Ki: 360 nM

Nc1nc2c(ncn2COCCCCOP(=O)(O)O)c(=O)[nH]1
Ki: 51 nM

Nc1nc2c(cnn2COCCCCCCP(=O)(O)O)c(=O)[nH]1
Ki: 630 nM

Nc1nc(O)c2nn(COCCCCCP(=O)(O)O)nc2n1
Ki: 550 nM

Nc1nc(O)c2nnn(COCCCCCCP(=O)(O)O)c2n1
Ki: 190 nM

Nc1nc2c(cnn2CCCCCCC(F)(F)P(=O)(O)O)c(=O)[nH]1
Ki: 49 nM

Nc1nc2c(nnn2COCCCCP(=O)(O)O)c(=O)[nH]1
Ki: 48 nM

Nc1nc2c(nnn2COCCCCCP(=O)(O)O)c(=O)[nH]1
Ki: 96 nM

Nc1nc(O)c2nnn(CCCCP(=O)(O)O)c2n1
Ki: 7300 nM

Nc1nc2c(ncn2COCCCCCP(=O)(O)O)c(=O)[nH]1
Ki: 160 nM

Nc1nc(O)c2ncn(COCCCCP(=O)(O)O)c2n1
Ki: 56 nM

Nc1nc(O)c2ncn(CCCCCCCP(=O)(O)O)c2n1
Ki: 530 nM

Nc1nc2c(cnn2CCCCCCCCP(=O)(O)O)c(=O)[nH]1
Ki: 1100 nM

Nc1nc2c(cnn2COCCCCCP(=O)(O)O)c(=O)[nH]1
Ki: 230 nM

Nc1nc2c(ncn2CCCCCCC(F)(F)P(=O)(O)O)c(=O)[nH]1
Ki: 57 nM

Nc1nc(O)c2nnn(CCCCCP(=O)(O)O)c2n1
Ki: 65 nM
